Experiments:
[1] = tested on: multiple myeloma cell line MM.1S; assay: MM.1S 3 day proliferation assay, single agents and combinations (Cell-Titer Glo); assay type: cell-based; conditions: FIG. 1
Method: The in vitro potency of the combinations of formula I compounds with chemotherapeutic agents was measured by the cell proliferation assay of Example 11 and the results are compiled in Example iii. The CellTiter-Glo® Luminescent Cell Viability Assay (commercially available from Promega Corp., Madison, Wis.) is a homogeneous assay method based on the recombinant expression of Coleoptera luciferase (U.S. Pat. No. 5,583,024; U.S. Pat. No. 5,674,713; U.S. Pat. No. 5,700,670) and determines the number of viable cells in culture based on quantitation of the ATP present, an indicator of metabolically active cells (Crouch et al (1993) J. Immunol. Meth. 160:81-88; U.S. Pat. No. 6,602,677). The CellTiter-Glo® Assay was conducted in 96 or 384 well format, making it amenable to automated high-throughput screening (HTS) (Cree et al (1995) AntiCancer Drugs 6:398-404). The homogeneous assay procedure involves adding the single reagent (CellTiter-Glo® Reagent) directly to cells cultured in serum-supplemented medium. Cell washing, removal of medium and multiple pipetting steps are not required. The system detects as few as 15 cells/well in a 384-well format in 10 minutes after adding reagent and mixing.
The homogeneous “add-mix-measure” format results in cell lysis and generation of a luminescent signal proportional to the amount of ATP present. […] Viable cells are reflected in relative luminescence units (RLU). […] Data can be recorded by luminometer or CCD camera imaging device. The luminescence output is presented as relative light units (RLU), measured over time.
The combination index (CI) score is calculated by the Chou and Talalay method (Chou, T. and Talalay, P. (1984) Adv. Enzyme Regul. 22:27-55). […] The strength of synergy is assessed according to Chou and Talalay. […]
The in vitro cell survival and proliferation assay (Cell-Titer Glo, Promega) measured viable cells over varying inhibitor concentrations (10^−3 to 10 μMolar, Relative Units, wherein a Relative Unit equals 0.3 micromolar for Compound 3, 0.3 micromolar for Formula A, and 0.1 micromolar for Formula B). […]

[2] = tested on: bone marrow aspirate samples from multiple myeloma patients; assay: Primary cancer cell isolates from bone marrow aspirates, apoptosis; assay type: cell-based, human; conditions: 0.3 or 1.0 micromolar; two of four cases
Method: Shown in FIG. 2 are a summary of Combination Index values for Compound 3 in combination with different agents. The values shown were calculated at the ED50 of the dose response curves which were similar in nature to those exemplified in FIG. 1. Each dot in the plot represents the test results obtained with a different multiple myeloma cell line with a different combination of test agents, including Compound 3 plus a second agent as labeled on the abscissa. The horizontal line on the plot itself indicates the mean of all CI values for a given test agent. Combinations of Compound 3 with clinical standard of care chemotherapeutic agents including dexamethasone, lenalidomide, bortezomib, and melphalan produced variable results wherein CI values between about 0.1 and about 1 were obtained, with means generally greater than about 0.5. Compared to these clinically active agents, unexpectedly uniform and unexpectedly potent combination test results were obtained for Compound 3 in combination with Formula A, in which the majority of calculated CI values were less than about 0.2 and the mean across all cancer cell lines tested was about 0.2. In addition to these findings, bone marrow aspirate samples from multiple myeloma patients […] to test Formula A and Compound 3 singly and in combination on these primary cancer cell isolates.

Nc1sc(-c2c(F)cccc2F)nc1C(=O)Nc1cnccc1N1CCC[C@H](N)C1 [Example 3, (S)-5-amino-N-(4-(3-aminopiperidin-1-yl)pyridin-3-yl)-2-(2,6-difluorophenyl)thiazole-4-carboxamide]
lowest level reached by dose-response curve, of control value [1]: does not fully reach 0% of the control value
activity on primary cancer cell isolates [2]: only limited single agent activity
